Reference: publication PMC10536928, “Discovery of New Pyrrolo[2,3-d]pyrimidine Derivatives as Potential Multi-Targeted Kinase Inhibitors and Apoptosis Inducers” (Pharmaceuticals, 2023)
pIC50: −log10 of the molar value.

Columns and labels:
[1] = biological target: T1, CDK2 (Homo sapiens, UniProt P24941); assay: In vitro protein kinase inhibition assay (ELISA kit); format: biochemical; settings: triplicate
T1 construct: purchased
Method: (§1) In accordance with the documented procedures, fifteen derivatives of the synthesized compounds were evaluated for their inhibitory effects on EGFR, VEGFR-2, Her2, and CDK2 using specific human ELISA kits (Enzyme-Linked Immunosorbent Assay) designed for each respective kinase enzyme. Initially, various concentrations of the synthesized compounds were combined with specific antibodies for each enzyme in individual wells of a 96-well plate, followed by incubation at room temperature for 2.5 h. Subsequently, the plate was washed, and a biotin antibody (100 µL), prepared in-house, was added and allowed to incubate at ambient temperature for 1 h. After another washing step, a solution of streptavidin (100 µL) was introduced to each well and left for 45 min at room temperature. Following a third round of washing, a TMB Substrate (100 µL) reagent was applied to all wells and incubated for 30 min at room temperature. Finally, the reaction was terminated by adding 50 µL of a stop solution, and the absorbance was directly measured at 450 nm. A standard curve was constructed, illustrating the relationship between concentration (X-axis) and absorbance (Y-axis).

[2] = biological target: T2, EGFR (Homo sapiens, UniProt P00533); assay: as above; format: biochemical; settings: triplicate
T2 construct: purchased
Method: as §1

[3] = biological target: T3, Her2 (Homo sapiens, UniProt P04626); assay: as above; format: biochemical; settings: triplicate
T3 construct: purchased
Method: as §1

[4] = biological target: T4, VEGFR2 (Homo sapiens, UniProt P35968); assay: as above; format: biochemical; settings: triplicate
T4 construct: purchased
Method: as §1

[5] = tested on: HepG2 cells; assay: Cell cycle analysis (propidium iodide flow cytometry); format: cell-based
Excerpt: The objective of the study was to evaluate the influence of the synthesized compounds on the progression of the cell cycle in HepG2 cells.
The observed modifications in cell cycle distribution following drug treatment indicate a potential mechanism of action involving cell cycle arrest, a commonly employed therapeutic strategy for suppressing cancer cell proliferation. By impeding cells in the G0–G1 phase, drugs can effectively prevent them from proceeding to the S phase, where DNA replication takes place, and ultimately lead to cell death. […] The cell cycle distribution index (CDI) is a metric that quantifies the rate of cell proliferation and can be derived from the percentage of cells in each phase of the cell cycle. The CDI was calculated using the formula: CDI = (G2/M + S)/[…], wherein G0/G1, S, and G2/M denote the percentages of cells in the respective phases of the cell cycle. The CDI values for the control and compound 5k were determined to be 1.35 and 1.03, respectively.
To investigate the impact of the synthesized compound 5k on cell cycle progression, the ab139418 Propidium Iodide flow cytometry kit/BD was utilized. Initially, HepG2 cells were seeded in triplicate at a density of 2 × 10^5 cells per well in 6-well plates and incubated for 24 h. […] Following treatment, the HepG2 cells were fixed with 70% ethanol and incubated for 12 h at 4 °C. Subsequently, the wells were washed with cold PBS, treated with RNase A (100 µL) at 37 °C for 30 min, and stained with Propidium Iodide (400 µL) in a dark environment at room temperature for another 30 min. The labeled cells were then analyzed using the Epics XLMCL™ flow cytometer equipment (Beckman Coulter, Apeldoorn, the Netherlands). Finally, the experimental results were analyzed using Turku Centre for Biotechnology software version 2.5.1 (Turku, Finland).

[6] = tested on: HepG2 cells; assay: Annexin-V/propidium iodide double staining assay; format: cell-based; settings: compound at its IC50, 24 h
Method: To investigate the type of cell death induced by compound 5k, flow cytometry analysis was conducted. […] Subsequently, the cells were double stained with Annexin V and propidium iodide (PI). […] Apoptosis is a process of programmed cell death that occurs naturally in the body, while necrosis is a type of cell death that occurs due to damage or injury to the cell. […] In the early stage of the experiment, the percentage of apoptotic cells was 0.51% in the control group and 15.63% in the 5k treated group. In the late stage, the percentage of apoptotic cells was 0.29% in the control group and 9.74% in the 5k treated group.
In contrast, the percentage of necrotic cells was also higher in the 5k treated group compared to the control group. The percentage of necrotic cells was 1.58% in the control group and 4.17% in the 5k treated group. […] Further studies are needed to determine the underlying mechanisms of this effect and to assess the potential therapeutic applications of compound 5k in the treatment of diseases involving abnormal cell death.
To investigate the apoptotic effects of the synthesized compound 5k, HepG2 cells were cultured in triplicate at a density of 2.0 × 10^5 cells per well. Subsequently, the cells were treated with the selected compounds at their respective IC50 values determined by the MTT assay. After 24 h, the cells were detached using trypsin, collected, and then centrifuged. Following two washes with PBS, the cells were resuspended in 0.1 mL of binding buffer. Dual staining was performed by adding Annexin V-FITC (5 µL) and propidium iodide (5 µL) to the cell suspension, which was then incubated in the dark for 15 min at room temperature. Flow cytometry analysis was performed using the Epics XL-MCL™ flow cytometry equipment (Beckman Coulter, Apeldoorn, The Netherlands) with an excitation wavelength of 488 nm and an emission wavelength of 530 nm. Finally, the experimental results were analyzed using flowing “Turku Centre for Biotechnology” software, version 2.5.1 (Turku, Finland).

[7] = tested on: four different cancer cell lines (MCF-7, HepG2, MDA-MB-231, HeLa); assay: MTT cytotoxicity assay, range over the four cell lines; format: cell-based; settings: read-out: IC50 values, range over the tested cancer cell lines
Method: The cytotoxic effects of compounds 5a–m were evaluated using a standard MTT method against four different cancer cell lines, namely mammary gland cancer (MCF-7), hepatocellular carcinoma (HepG2), breast cancer (MDA-MB-231), and epithelioid cervix carcinoma (HeLa). […] These findings highlight the potential of these compounds as candidates for further development as cytotoxic agents for cancer treatment.
The cytotoxicity of compounds 5a–m was assessed against various cancer cell lines and one normal cell line using the described methodology. In brief, the cells were cultured in 96-well plates with a density of 1.0 × 10^4 cells per well, supplemented with 10% fetal bovine serum (FBS), an antibiotic cocktail, and RPMI 11,640 medium. The cells were then incubated for 48 h with 5% CO2 and 100% relative humidity at 37 °C. […] Following treatment, the addition of 20 µL of MTT solution was added to each well and incubation was continued for another 4 h, after which dimethyl sulfoxide (100 µL) was used to dissolve the resulting insoluble formazan. The absorbance was measured at 570 nm using a BioTek EXL 800 plate reader (Agilent Technologies, CA, USA). By comparing the absorbance of treated samples to untreated samples, the relative cell viability percentage was calculated as (A570 of treated samples/A570 of untreated sample) × 100. The IC50 values were determined based on triplicate measurements.

T2 sequence (P00533 25-1210): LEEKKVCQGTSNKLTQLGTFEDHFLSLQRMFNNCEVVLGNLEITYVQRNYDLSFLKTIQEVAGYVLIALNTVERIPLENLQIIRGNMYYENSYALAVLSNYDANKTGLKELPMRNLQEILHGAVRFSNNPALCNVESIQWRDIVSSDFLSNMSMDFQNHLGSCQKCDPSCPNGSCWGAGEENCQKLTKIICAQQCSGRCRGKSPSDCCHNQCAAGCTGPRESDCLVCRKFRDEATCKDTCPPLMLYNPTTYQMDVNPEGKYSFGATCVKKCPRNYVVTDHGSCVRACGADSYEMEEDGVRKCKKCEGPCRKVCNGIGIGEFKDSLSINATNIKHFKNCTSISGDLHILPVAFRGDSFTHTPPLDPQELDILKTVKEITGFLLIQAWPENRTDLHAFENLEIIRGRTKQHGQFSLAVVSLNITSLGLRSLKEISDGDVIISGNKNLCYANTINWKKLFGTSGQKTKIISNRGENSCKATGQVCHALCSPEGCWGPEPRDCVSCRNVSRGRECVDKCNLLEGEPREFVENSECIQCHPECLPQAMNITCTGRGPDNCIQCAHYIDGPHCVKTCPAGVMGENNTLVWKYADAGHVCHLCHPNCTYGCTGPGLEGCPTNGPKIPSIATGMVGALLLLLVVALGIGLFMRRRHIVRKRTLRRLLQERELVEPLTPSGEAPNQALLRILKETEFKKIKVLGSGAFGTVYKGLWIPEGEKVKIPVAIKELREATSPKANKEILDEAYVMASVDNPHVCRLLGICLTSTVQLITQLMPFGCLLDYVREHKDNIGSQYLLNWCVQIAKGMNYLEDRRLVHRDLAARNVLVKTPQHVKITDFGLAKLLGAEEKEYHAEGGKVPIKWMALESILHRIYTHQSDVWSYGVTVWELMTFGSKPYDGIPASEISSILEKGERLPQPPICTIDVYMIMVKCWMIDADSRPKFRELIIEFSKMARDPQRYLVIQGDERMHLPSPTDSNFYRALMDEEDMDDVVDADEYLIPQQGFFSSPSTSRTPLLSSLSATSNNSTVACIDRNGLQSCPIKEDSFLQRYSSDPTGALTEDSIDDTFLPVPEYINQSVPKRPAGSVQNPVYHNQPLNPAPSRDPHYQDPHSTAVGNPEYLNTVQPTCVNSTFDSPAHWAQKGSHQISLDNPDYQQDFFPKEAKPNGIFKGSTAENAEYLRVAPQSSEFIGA
T3 sequence (P04626 23-1255): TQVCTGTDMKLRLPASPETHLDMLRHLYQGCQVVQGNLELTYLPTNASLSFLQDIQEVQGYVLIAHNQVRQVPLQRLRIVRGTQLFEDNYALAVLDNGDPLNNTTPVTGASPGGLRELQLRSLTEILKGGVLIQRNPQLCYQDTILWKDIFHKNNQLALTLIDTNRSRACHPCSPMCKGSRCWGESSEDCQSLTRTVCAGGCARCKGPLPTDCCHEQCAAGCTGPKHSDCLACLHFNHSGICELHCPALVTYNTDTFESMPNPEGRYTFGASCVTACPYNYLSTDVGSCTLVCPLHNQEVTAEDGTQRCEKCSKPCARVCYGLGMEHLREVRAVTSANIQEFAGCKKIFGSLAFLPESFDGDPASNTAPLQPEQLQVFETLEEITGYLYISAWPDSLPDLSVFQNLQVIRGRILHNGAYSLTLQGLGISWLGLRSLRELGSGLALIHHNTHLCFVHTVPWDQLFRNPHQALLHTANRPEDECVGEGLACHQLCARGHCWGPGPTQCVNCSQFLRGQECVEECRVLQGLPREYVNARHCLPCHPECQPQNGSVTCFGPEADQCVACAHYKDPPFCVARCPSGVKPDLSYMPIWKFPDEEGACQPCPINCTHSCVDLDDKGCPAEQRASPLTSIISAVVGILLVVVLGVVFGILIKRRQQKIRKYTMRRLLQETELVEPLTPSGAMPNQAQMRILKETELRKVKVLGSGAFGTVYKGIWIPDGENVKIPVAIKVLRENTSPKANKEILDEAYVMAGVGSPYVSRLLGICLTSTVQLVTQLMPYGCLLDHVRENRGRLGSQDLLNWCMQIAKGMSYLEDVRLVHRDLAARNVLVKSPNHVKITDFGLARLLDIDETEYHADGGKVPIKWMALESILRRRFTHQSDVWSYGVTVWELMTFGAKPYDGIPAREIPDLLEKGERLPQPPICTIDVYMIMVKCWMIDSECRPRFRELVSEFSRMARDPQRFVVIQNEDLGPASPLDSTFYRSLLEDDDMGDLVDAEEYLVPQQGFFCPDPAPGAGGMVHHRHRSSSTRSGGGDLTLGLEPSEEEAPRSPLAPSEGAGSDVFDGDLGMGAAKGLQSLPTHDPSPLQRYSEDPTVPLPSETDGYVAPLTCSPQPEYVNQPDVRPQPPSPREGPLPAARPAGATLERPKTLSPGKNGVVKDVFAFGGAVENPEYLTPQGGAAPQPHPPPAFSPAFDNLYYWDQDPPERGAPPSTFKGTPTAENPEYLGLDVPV
T4 sequence (P35968 20-1356): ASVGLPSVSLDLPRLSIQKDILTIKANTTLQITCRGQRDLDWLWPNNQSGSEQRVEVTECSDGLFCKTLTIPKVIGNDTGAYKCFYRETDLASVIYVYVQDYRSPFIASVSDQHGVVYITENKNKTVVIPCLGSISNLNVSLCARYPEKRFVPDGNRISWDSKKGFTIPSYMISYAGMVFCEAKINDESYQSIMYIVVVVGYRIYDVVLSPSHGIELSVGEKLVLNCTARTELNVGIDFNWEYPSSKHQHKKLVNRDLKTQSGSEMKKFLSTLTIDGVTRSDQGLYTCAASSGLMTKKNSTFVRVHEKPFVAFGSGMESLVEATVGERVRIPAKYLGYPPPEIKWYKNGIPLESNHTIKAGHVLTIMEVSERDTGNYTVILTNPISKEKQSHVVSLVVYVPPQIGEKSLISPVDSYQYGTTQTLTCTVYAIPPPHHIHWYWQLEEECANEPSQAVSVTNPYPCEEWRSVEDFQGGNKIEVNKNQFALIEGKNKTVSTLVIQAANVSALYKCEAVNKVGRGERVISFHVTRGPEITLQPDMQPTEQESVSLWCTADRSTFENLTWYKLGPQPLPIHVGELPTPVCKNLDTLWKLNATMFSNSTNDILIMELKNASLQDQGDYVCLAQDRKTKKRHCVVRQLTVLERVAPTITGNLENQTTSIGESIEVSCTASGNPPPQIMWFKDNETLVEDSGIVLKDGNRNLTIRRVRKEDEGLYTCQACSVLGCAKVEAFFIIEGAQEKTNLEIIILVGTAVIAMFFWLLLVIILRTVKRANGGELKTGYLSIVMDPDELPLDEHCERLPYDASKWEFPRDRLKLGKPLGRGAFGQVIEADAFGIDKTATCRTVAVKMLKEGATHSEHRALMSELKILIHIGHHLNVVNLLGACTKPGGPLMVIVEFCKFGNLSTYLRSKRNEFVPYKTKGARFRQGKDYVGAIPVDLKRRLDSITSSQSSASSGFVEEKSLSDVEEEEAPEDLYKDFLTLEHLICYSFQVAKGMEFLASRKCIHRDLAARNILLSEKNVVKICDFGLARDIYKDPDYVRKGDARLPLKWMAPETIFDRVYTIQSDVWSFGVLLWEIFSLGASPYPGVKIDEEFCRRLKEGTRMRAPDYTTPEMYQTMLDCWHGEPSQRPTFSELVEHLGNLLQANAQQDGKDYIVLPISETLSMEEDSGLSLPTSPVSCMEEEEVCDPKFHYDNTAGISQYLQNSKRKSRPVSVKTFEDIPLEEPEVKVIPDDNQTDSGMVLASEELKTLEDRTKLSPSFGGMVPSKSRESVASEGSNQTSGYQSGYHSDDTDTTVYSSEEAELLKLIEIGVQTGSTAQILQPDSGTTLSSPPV

O=C(N/N=C/c1ccc(Cl)c(Cl)c1)c1ccc(Nc2ncnc3[nH]ccc23)cc1 [Compound 5k, (E)-4-((7H-Pyrrolo[2,3-d]pyrimidin-4-yl)amino)-N’-(3,4-dichlorobenzylidene)benzohydrazide]
IC50 [1]: 204 nM
IC50 [2]: 79 nM
IC50 [3]: 40 nM
IC50 [4]: 136 nM
Cell Cycle Distribution Index (CDI) ([5]; CDI = (G2/M + S)/G0/G1, control 1.35): 1.03
DNA Content (%) %G2/M ([5]; compound at its IC50, 24 h, control 19.38): 18.3%
DNA Content (%) %S ([5]; compound at its IC50, 24 h, control 36.76): 32.52%
DNA Content (%) %G0–G1 ([5]; compound at its IC50, 24 h, control 43.86): 49.18%
Apoptosis Late ([6]; control 0.29): 9.74%
Apoptosis Early ([6]; control 0.51): 15.63%
Necrosis ([6]; control 1.58): 4.17%
pIC50 [7]: 4.23 to 4.54
